# Reference: paper PMC2922946 (Bioorganic & medicinal chemistry, 2010)
# Where a SMILES comes first, the peptide text is derived from it. The star is where a group is joined. Boc = CC(C)(C)OC(=O)*
# What was measured:
# Hdm2–p53 complex = Hdm2–p53 complex (Homo sapiens, UniProt Q00987); test: Competitive ELISA, Hdm2–p53 inhibition; assay type: biochemical; settings: for % Inhibition at 560 μM: ELISA, Hdm2 (1.5 μM), peptide 560 μM
# Hdmx–p53 complex = biological target: T1, Hdmx–p53 complex (Homo sapiens, UniProt O15151); test: Competitive ELISA, Hdmx–p53 inhibition; assay type: biochemical; settings: for % inhibition at 320 μM / activity against the Hdmx–p53 complex (in words): ELISA; for % inhibition at 320 μM: Hdmx (200 nM), peptide 320 μM
# T1 sequence (O15151 1-189): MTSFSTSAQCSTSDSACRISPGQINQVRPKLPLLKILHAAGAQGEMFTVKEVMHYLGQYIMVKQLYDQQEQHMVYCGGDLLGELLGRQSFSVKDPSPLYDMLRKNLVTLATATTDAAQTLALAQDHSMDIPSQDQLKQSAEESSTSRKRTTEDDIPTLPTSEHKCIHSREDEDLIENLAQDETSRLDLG
# Chain of Hdm2–p53 complex (Q00987 1-188, one chain of several): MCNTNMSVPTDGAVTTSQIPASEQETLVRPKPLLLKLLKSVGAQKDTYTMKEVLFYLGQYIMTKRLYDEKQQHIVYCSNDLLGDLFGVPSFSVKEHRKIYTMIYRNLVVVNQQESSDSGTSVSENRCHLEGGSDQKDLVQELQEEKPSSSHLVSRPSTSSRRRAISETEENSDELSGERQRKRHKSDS
molecule,measurement,setting,value
"CC[C@H](C)[C@@H]1NC(=O)[C@H](C)NC(=O)[C@H](C(C)C)NC(=O)[C@H](Cc2ccc(O)cc2)NC(=O)[C@H](Cc2ccc(O)cc2)NC(=O)[C@H](Cc2ccccc2)NC1=O [Compound 3, c-(AIFYYV)] (cyclo(AIFYYV))",level of activity lower than that of the decapeptide control,"Hdm2–p53 complex; Hdm2–p53 ELISA, versus control ETFSDLWKLL",approximately 13 fold
same,antagonism of the Hdmx–p53 complex,Hdmx–p53 complex; wide range of concentrations (up to 1 mM),did not antagonize
"CC(C)(C)OC(=O)N[C@@H](CCCNC(=N)N)C(=O)N[C@@H](Cc1c[nH]c2ccccc12)C(=O)N[C@@H](Cc1ccccc1)C(N)=O [Compound 5a, Boc–RWF–NH2] (Boc-Arg-Trp-Phe-NH2)",% inhibition at 320 μM,Hdmx–p53 complex,No Inhibition
"CC(C)C[C@@H]1NC(=O)[C@H](CC(=O)O)NC(=O)[C@H](C)NC(=O)[C@H](Cc2ccccc2)NC(=O)[C@H](Cc2c[nH]c3ccccc23)NC(=O)[C@H](CCCNC(=N)N)NC1=O [Compound 8, c-(ADLRWF)] (cyclo(ADLRWF))",inhibition at 320 µM,Hdmx–p53 complex; read-out: % inhibition at 320 μM,12 ± 1%
CC(C)CNC(=O)[C@H](Cc1ccccc1)NC(=O)[C@H](Cc1c[nH]c2ccccc12)NC(=O)[C@H](CCCNC(=N)N)NC(=O)OCc1ccccc1 [Compound 12F],activity against Hdm2–p53 complex,Hdm2–p53 complex; concentration not given,no activity
Boc-DLRWF-NH2 [Compound 7a],% inhibition at 320 μM,Hdmx–p53 complex,No Inhibition
Boc–DLRWF–N(CH2)5 [Compound 7b],activity against the Hdmx–p53 complex (in words),Hdmx–p53 complex,dramatic reduction of activity
same,% inhibition at 320 μM,Hdmx–p53 complex,13 ± 1%
Boc–FYYV–N(CH2)5 [Compound 2a],% Inhibition at 560 μM,Hdm2–p53 complex,No Inhibition
same,activity toward Hdm2–p53 complex,Hdm2–p53 complex; at concentrations of up to 560 μM,no activity
Boc–IFYYV–N(CH2)5 [Compound 2b],% Inhibition at 560 μM,Hdm2–p53 complex,16 ± 1%
Boc–WF–N(CH2)5 [Compound 4b],activity against the Hdmx–p53 complex (in words),Hdmx–p53 complex,measurable inhibition
same,% inhibition at 320 μM,Hdmx–p53 complex,13 ± 1%
